Laboratory results taken from patent publication US10568950B1, “Peptides, combination of peptides and scaffolds for use in immunotherapeutic treatment of various cancers” (Immatics Biotechnologies GmbH, priority 2015, dated 2020).

Legend:
[1] = system: CD8+ T cells of healthy HLA-A*02+ donors; experiment: In vitro immunogenicity: priming of CD8+ T cells with aAPCs loaded with HLA-A*02/peptide complexes and anti-CD28, multimer staining; assay type: cell-based, human; details: HLA-A*02 peptides of Table 12B
Description: CD8+ T cells were primed using artificial APCs coated with anti-CD28 mAb and HLA-A*02 in complex with SEQ ID NO: 2 peptide (FIG. 4A, left panel), SEQ ID NO: 9 peptide (FIG. 4B, left panel) and SEQ ID NO: 331 peptide (FIG. 4C, left panel), respectively. After three cycles of stimulation, the detection of peptide-reactive cells was performed by 2D multimer staining with A*02/SEQ ID NO: 2 (A), A*02/SEQ ID NO: 9 (B) or A*02/SEQ ID NO: 331 (C). Right panels (FIGS. 4A, 4B and 4C) show control staining of cells stimulated with irrelevant A*02/peptide complexes. Viable singlet cells were gated for CD8+ lymphocytes. Boolean gates helped excluding false-positive events detected with multimers specific for different peptides. Frequencies of specific multimer+ cells among CD8+ lymphocytes are indicated.
(§1) In order to obtain information regarding the immunogenicity of the TUMAPs of the present invention, the inventors performed investigations using an in vitro T-cell priming assay based on repeated stimulations of CD8+ T cells with artificial antigen presenting cells (aAPCs) loaded with peptide/MHC complexes and anti-CD28 antibody.
In order to perform in vitro stimulations by artificial antigen presenting cells loaded with peptide-MHC complex (pMHC) and anti-CD28 antibody, the inventors first isolated CD8+ T cells from fresh HLA-A*02 leukapheresis products via positive selection using CD8 microbeads (Miltenyi Biotec, Bergisch-Gladbach, Germany) of healthy donors obtained from the University clinics Mannheim, Germany, after informed consent.
(§2) PBMCs and isolated CD8+ lymphocytes were incubated in T-cell medium (TCM) until use consisting of RPMI-Glutamax (Invitrogen, Karlsruhe, Germany) supplemented with 10% heat inactivated human AB serum (PAN-Biotech, Aidenbach, Germany), 100 U/ml Penicillin/100 μg/ml Streptomycin (Cambrex, Cologne, Germany), 1 mM sodium pyruvate (CC Pro, Oberdorla, Germany), 20 μg/ml Gentamycin (Cambrex). 2.5 ng/ml IL-7 (PromoCell, Heidelberg, Germany) and 10 U/ml IL-2 (Novartis Pharma, Nurnberg, Germany) were also added to the TCM at this step.
(§3) Generation of pMHC/anti-CD28 coated beads, T-cell stimulations and readout was performed in a highly defined in vitro system using four different pMHC molecules per stimulation condition and 8 different pMHC molecules per readout condition.
(§4) The purified co-stimulatory mouse IgG2a anti human CD28 Ab 9.3 (Jung et al., 1987) was chemically biotinylated using Sulfo-N-hydroxysuccinimidobiotin as recommended by the manufacturer (Perbio, Bonn, Germany). Beads used were 5.6 μm diameter streptavidin coated polystyrene particles (Bangs Laboratories, Illinois, USA).
pMHC used for positive and negative control stimulations were A*0201/MLA-001 (peptide […] (SEQ ID NO. 418) from modified Melan-A/MART-1) and A*0201/DDX5-001 ([…] from DDX5, SEQ ID NO. 419), respectively.
800.000 beads/200 μl were coated in 96-well plates in the presence of 4×12.5 ng different biotin-pMHC, washed and 600 ng biotin anti-CD28 were added subsequently in a volume of 200 μl. Stimulations were initiated in 96-well plates by co-incubating 1×10^6 CD8+ T cells with 2×10^5 washed coated beads in 200 μl TCM supplemented with 5 ng/ml IL-12 (PromoCell) for 3 days at 37° C. Half of the medium was then exchanged by fresh TCM supplemented with 80 U/ml IL-2 and incubating was continued for 4 days at 37° C. This stimulation cycle was performed for a total of three times. For the pMHC multimer readout using 8 different pMHC molecules per condition, a two-dimensional combinatorial coding approach was used as previously described (Andersen et al., 2012) with minor modifications encompassing coupling to 5 different fluorochromes. Finally, multimeric analyses were performed by staining the cells with Live/dead near IR dye (Invitrogen, Karlsruhe, Germany), CD8-FITC antibody clone SKI (BD, Heidelberg, Germany) and fluorescent pMHC multimers. For analysis, a BD LSRII SORP cytometer equipped with appropriate lasers and filters was used. […]

HLA-A*02 = HLA-A*02 (Homo sapiens, UniProt P04439, D140Y/D185E/D98H/E176V/E277Q/G131W/G231S/I119V/I121R/I166T/I218V/N151K/N90K/P208A/P217A/Q86G/Q94H/R138H/R169H); experiment: MHC binding assay: UV-ligand exchange, beta2m ELISA (peptide exchange yield); details: binding to HLA-A*02, β2m ELISA
[2] = system: CD8+ T cells of healthy HLA-A*24+ donors; experiment: In vitro immunogenicity: priming of CD8+ T cells with aAPCs loaded with HLA-A*24/peptide complexes and anti-CD28, multimer staining; assay type: cell-based, human; details: in vitro immunogenicity, HLA-A*24 peptides of Table 12B
Description: CD8+ T cells were primed using artificial APCs coated with anti-CD28 mAb and HLA-A*24 in complex with SEQ ID NO: 99 peptide (FIG. 5A, left panel), SEQ ID NO: 119 peptide (FIG. 5B, left panel), SEQ ID NO: 142 peptide (FIG. 5C, left panel) and SEQ ID NO: 174 peptide (FIG. 5D, left panel), respectively. After three cycles of stimulation, the detection of peptide-reactive cells was performed by 2D multimer staining with A*24/SEQ ID NO: 99 (A), A*24/SEQ ID NO: 119 (B), A*24/SEQ ID NO: 142 (C) or A*24/SEQ ID NO: 174 (D). Right panels (FIGS. 5A, 5B, 5C and 5D) show control staining of cells stimulated with irrelevant A*24/peptide complexes. Viable singlet cells were gated for CD8+ lymphocytes. Boolean gates helped excluding false-positive events detected with multimers specific for different peptides. Frequencies of specific multimer+ cells among CD8+ lymphocytes are indicated.
as §1, §2, §3, §4
800.000 beads/200 μl were coated in 96-well plates in the presence of 4×12.5 ng different biotin-pMHC, washed and 600 ng biotin anti-CD28 were added subsequently in a volume of 200 μl. Stimulations were initiated in 96-well plates by co-incubating […] CD8+ T cells with 2×10^5 washed coated beads in 200 μl TCM supplemented with 5 ng/ml IL-12 (PromoCell) for 3 days at 37° C. Half of the medium was then exchanged by fresh TCM supplemented with 80 U/ml IL-2 and incubating was continued for 4 days at 37° C. This stimulation cycle was performed for a total of three times. For the pMHC multimer readout using 8 different pMHC molecules per condition, a two-dimensional combinatorial coding approach was used as previously described (Andersen et al., 2012) with minor modifications encompassing coupling to 5 different fluorochromes. Finally, multimeric analyses were performed by staining the cells with Live/dead near IR dye (Invitrogen, Karlsruhe, Germany), CD8-FITC antibody clone SKI (BD, Heidelberg, Germany) and fluorescent pMHC multimers. For analysis, a BD LSRII SORP cytometer equipped with appropriate lasers and filters was used. Peptide specific cells were calculated as percentage of total CD8+ cells. Evaluation of multimeric analysis was done using the FlowJo software (Tree Star, Oreg., USA). In vitro priming of specific multimer+ CD8+ lymphocytes was detected by comparing to negative control stimulations.

HLA-A*24 = experiment: MHC binding assay: UV-ligand exchange, beta2m ELISA (peptide exchange yield); parameters: species or system human; details: binding to HLA-A*24, β2m ELISA

Peptide exchange (MHC class I binding score, peptide exchange yield) (HLA-A*02)	Peptide exchange (MHC class I binding score, peptide exchange yield) (HLA-A*24)	Substance	Wells positive [%] [1]	Wells positive [%] [2]
+++ (50%-75% = +++)	–	2 (ALYGKLLKL; listed as Homo sapiens) [compound 2]	++++ (>= 70 % = ++++)	–
+++ (50%-75% = +++)	–	7 (AAAAKVPEV; listed as Homo sapiens) [compound 7]	+ (<20% = +)	–
+++ (50%-75% = +++)	–	8 (KLGPFLLNA; listed as Homo sapiens) [compound 8]	+++ (50%-69% = +++)	–
++ (20%-49% = ++)	–	9 (FLGDYVENL; listed as Homo sapiens) [compound 9]	+ (<20% = +)	–
+++ (50%-75% = +++)	–	17 (ILHEHHIFL; listed as Homo sapiens) [compound 17]	+ (<20% = +)	–
+++ (50%-75% = +++)	–	43 (LLWAGPVTA; listed as Homo sapiens) [compound 43]	++++ (>= 70 % = ++++)	–
–	++++ (>= 75% = ++++)	144 (VFASLPGFLF; listed as Homo sapiens) [compound 144]	–	++ (20%-49% = ++)
–	++++ (>= 75% = ++++)	155 (IYKWITDNF; listed as Homo sapiens) [compound 155]	–	++ (20%-49% = ++)
–	++++ (>= 75% = ++++)	156 (YYMELTKLLL; listed as Homo sapiens) [compound 156]	–	+ (<20% = +)
–	++++ (>= 75% = ++++)	163 (RYLTISNLQF; listed as Homo sapiens) [compound 163]	–	+ (<20% = +)
–	++++ (>= 75% = ++++)	166 (FYTLPFHLI; listed as Homo sapiens) [compound 166]	–	++++ (>= 70 % = ++++)
–	++++ (>= 75% = ++++)	170 (QYPFHVPLL; listed as Homo sapiens) [compound 170]	–	+++ (50%-69% = +++)
–	++++ (>= 75% = ++++)	172 (VFIFKGNEF; listed as Homo sapiens) [compound 172]	–	+ (<20% = +)
–	++++ (>= 75% = ++++)	182 (AYAQLGYLLF; listed as Homo sapiens) [compound 182]	–	+++ (50%-69% = +++)
–	++++ (>= 75% = ++++)	186 (VFTTSSNIF; listed as Homo sapiens) [compound 186]	–	+ (<20% = +)
+++ (50%-75% = +++)	–	322 (ALVSGGVAQA; listed as Homo sapiens) [compound 322]	+ (<20% = +)	–
+++ (50%-75% = +++)	–	331 (AIWKELISL; listed as Homo sapiens) [compound 331]	++ (20%-49% = ++)	–
–	++++ (>= 75% = ++++)	356 (NYMPGQLTI; listed as Homo sapiens) [compound 356]	–	+ (<20% = +)
–	++++ (>= 75% = ++++)	359 (NYGVLHVTF; listed as Homo sapiens) [compound 359]	–	+ (<20% = +)
–	++++ (>= 75% = ++++)	365 (VFIDHPVHL; listed as Homo sapiens) [compound 365]	–	+ (<20% = +)
–	++++ (>= 75% = ++++)	380 (VYTGIDHHW; listed as Homo sapiens) [compound 380]	–	+ (<20% = +)
